Results published in PMC9694494, “Resveratrol/Hydrazone Hybrids: Synthesis and Chemopreventive Activity against Colorectal Cancer Cells” (Pharmaceutics, 2022).

Key:
Assay type in all cases: cell-based, human
SW480 cells [1] = experiment: Cell cycle analysis (PI flow cytometry), SW480; settings: SW480, 48 h treatment
Description: (§1) Cell staining with the fluorescent propidium iodide (PI) was used to measure cell cycle distribution. The assays were carried out following the previous methodology described by Nicoletti et al. (1991). Briefly, 2.5 × 10^5 cells/well were seeded in 6-well tissue culture plates at 37 °C and 5% CO2. After 24 h of adherence, cells were treated during 48 h with hybrids 6e and 7, together with the vehicle control. At the end of each treatment, cells were scraped, and the centrifuged pellet was resuspended in 1.8 mL of 70% ethanol at 4 °C to fix the cells overnight. Then, after centrifugation, cells were washed twice in versene buffer to completely remove the alcohol, besides, they were further resuspended in 300 µL of PBS containing 0.25 mg/mL RNAse (Type I-A, Sigma-Aldrich, Darmstadt, Germany) and 0.1 mg/mL PI. After the incubation in the dark (for 30 min at room temperature), 10,000 events were analyzed with a FACS Canto II flow cytometer and the software BD FACS Diva 6.1.3. (BD Biosciences, San Jose, CA, USA). The PI fluorescence signal was analyzed with excitation at 488 nm (using a Sapphire laser), and detection at 610 nm. The cell cycle model was fixed with FlowJo 7.6.2 (Ashland, OR, USA), applying the Dean-Jett-Fox model.

SW620 cells [2] = experiment: Cell death induction (Annexin-V/FITC and PI flow cytometry), SW620; settings: SW620, 48 h exposure
Description: (§2) Flow cytometric analysis using a double fluorescent staining with Annexin-V/FITC and propidium iodide (Roche Diagnostics) was used to evaluate phosphatidylserine exposure and membrane damage. Colon cancer cells (SW480 and SW620) were seeded at 2.5 × 10^5 in each 6-well plate and treated for 48 h. […] At the end of each treatment, cells were scraped and centrifuged. The pellet was resuspended in versene buffer with the fluorescent dyes and incubated for 20 min in darkness. Data were analyzed with FlowJo 7.6.2 (Ashland, OR, USA). Cells with double-positive staining for Annexin-V and PI were considered late apoptotic or dead cells, while the single staining with Annexin-V/FITC (Annexin-V/FITC positive) or propidium iodide (PI positive) was considered for early apoptotic or necrotic cells, respectively. Assays were performed twice.

SW620 cells [3] = experiment: Mitochondrial membrane potential (DiOC6/PI flow cytometry), SW620; settings: SW620, treated at IC50 value
Description: To evaluate changes in mitochondrial membrane permeability, the fluorescent dyes DiOC6 (3,3′-dihexyloxacarbocyanine iodide, Thermo Fisher Scientific, Waltham, MA, USA) and propidium iodide (PI) were used. Cell density was adjusted to seed 2.5 × 10^5 cells/well in 6-well tissue culture plates. […] Subsequently, cells were scraped with the same culture mean and stained with both fluorescent dyes, incubating at room temperature for 30 min in darkness. For each sample, 10,000 events were analyzed through flow cytometry with excitation at 488 nm and detection of the emission with the green (530/15 nm) and the red (610/20 nm) filters. The results informed about the cells with depolarized mitochondrial membranes.

SW620 cells [4] = experiment: Cell cycle analysis (PI flow cytometry), SW620; settings: SW620, 48 h treatment
Description: as §1

SW480 cells [5] = experiment: Cell death induction (Annexin-V/FITC and PI flow cytometry), SW480; settings: SW480, 48 h exposure
Description: as §2

Compound	Cell cycle distribution G0/G1 (SW480 cells [1])	Cell cycle distribution G2/M (SW480 cells [1])	plasma membrane integrity (PI positive staining) (SW620 cells [2])	Q1: PI-positive cells with membrane damage (SW620 cells [3])	Q2: PI-positive cells with membrane damage (SW620 cells [3])	Q3: DiOC6 high, live cells with high membrane polarization (SW620 cells [3])	Q4: DiOC6 low, cells in latency that lose membrane polarization (SW620 cells [3])	Cell cycle distribution Sub G0/G1 (SW620 cells [4])	plasma membrane integrity (PI positive staining) (SW480 cells [5])
COc1ccc(C(=O)N/N=C/c2c(O)cc(O)cc2/C=C/c2ccc(O)cc2)c(OC)c1 [6e, N′-((E)-2,4-dihydroxy-6-((E)-4-hydroxystyryl)benzylidene)-2,4-dimethoxybenzohydrazide]	58.95%	21.31%							
O=C(N/N=C/c1c(O)cc(O)cc1/C=C/c1ccc(O)cc1)c1ccncc1 [compound 7, N′-((E)-2,4-dihydroxy-6-((E)-4-hydroxystyryl)benzylidene)isonicotinohydrazide]			induced plasma membrane disintegration	2.19%	1.54%	89.3%	6.99%	20.60%	induced plasma membrane disintegration
